Measurements published in patent publication US20240116946A1 (Gilead Sciences, Inc., priority 2022, published 2024).
Like-named read-outs stand apart in the source and are kept apart here.

Tests used:
[1] = molecular target: recombinant SARS-CoV-2 Main protease (Mpro) (Severe acute respiratory syndrome coronavirus 2 (2019-nCoV) (SARS-CoV-2), UniProt P0DTD1); test: Cov Mpro Biochemical IC50 Assay; settings: fluorogenic peptide substrate
SARS-CoV-2-NLuc = test: microbe, parasite or virus in culture; format: cell-based, SARS Coronavirus 2
[2] = recombinant SARS-CoV-2 Mpro, read-out: MPro IC50
[3] = Severe acute respiratory syndrome coronavirus, 48 h; read-out: MPro EC50
[4] = Severe acute respiratory syndrome coronavirus, 48 h, read-out: MPro EC50
[5] = MPro IC50, recombinant SARS-CoV-2 Mpro

SMILES | IC50 [1, 2] [nM] | EC50 (SARS-CoV-2-NLuc; [3]) [nM] | EC50 (SARS-CoV-2-NLuc; [4]) [nM] | IC50 [1, 5] [nM]
O=c1[nH]c2cc(-c3ccccc3Cl)sc2c(=O)n1-c1cncc2ccccc12 [Example 1, 6-(2-chlorophenyl)-3-(isoquinolin-4-yl)thieno[3,2-d]pyrimidine-2,4(1H,3H)-dione] | 10.8 | 28.9 | – | –
O=c1[nH]c2cc(-c3ccccc3)sc2c(=O)n1-c1cncc2ccccc12 [Example 2] | 267 | – | 2490 | –
NC(=O)c1ccccc1-c1cc2[nH]c(=O)n(-c3cncc4ccccc34)c(=O)c2s1 [Example 3] | 312 | – | > 50000 | –
O=c1c2sc(-c3ccccc3Cl)cc2n(CC2CCCC2)c(=O)n1-c1cncc2ccccc12 [Example 4] | 792 | – | 892 | –
O=c1[nH]c2cc(-c3cccnc3)sc2c(=O)n1-c1cncc2ccccc12 [Example 5] | 342 | – | 1790 | –
Cc1ccccc1-c1cc2[nH]c(=O)n(-c3cncc4ccccc34)c(=O)c2s1 [Example 7] | 24.7 | – | 109 | –
O=c1[nH]c2cc(-c3c(O)cccc3Cl)sc2c(=O)n1-c1cncc2ccccc12 [Example 8] | 31.3 | – | 108 | –
O=c1[nH]c2cc(-c3ccccc3F)sc2c(=O)n1-c1cncc2ccccc12 [Example 9] | 159 | – | 295 | –
Cn1cc2ccc(-c3cc4[nH]c(=O)n(-c5cncc6ccccc56)c(=O)c4s3)cc2n1 [Example 10] | 13700 | – | 20000 | –
Cc1cccc(-c2cc3[nH]c(=O)n(-c4cncc5ccccc45)c(=O)c3s2)c1Cl [Example 11] | 4820 | – | 638 | –
Cc1c(Cl)cccc1-c1cc2[nH]c(=O)n(-c3cncc4ccccc34)c(=O)c2s1 [Example 12] | 7450 | – | 943 | –
O=c1[nH]c2cc(-c3ccc(F)cc3Cl)sc2c(=O)n1-c1cncc2ccccc12 [Example 13] | 17.1 | – | 42.4 | –
CC(C)Oc1cc(F)ccc1-c1cc2[nH]c(=O)n(-c3cncc4ccccc34)c(=O)c2s1 [Example 14] | 132 | – | 79.9 | –
Cc1cc2ncnn2cc1-c1cc2[nH]c(=O)n(-c3cncc4ccccc34)c(=O)c2s1 [Example 15] | 3970 | – | 25100 | –
O=c1[nH]c2cc(-c3ccccc3C3CC3)sc2c(=O)n1-c1cncc2ccccc12 [Example 16] | 164 | – | 182 | –
COCc1ccccc1-c1cc2[nH]c(=O)n(-c3cncc4ccccc34)c(=O)c2s1 [Example 17] | 35.1 | – | 160 | –
O=c1[nH]c2cc(-c3ccccc3OCc3ccccc3)sc2c(=O)n1-c1cncc2ccccc12 [Example 18] | 2930 | – | 208 | –
COc1cccc(Cl)c1-c1cc2[nH]c(=O)n(-c3cncc4ccccc34)c(=O)c2s1 [Example 19] | 29.5 | – | 59.6 | –
O=c1[nH]cc(-c2cc3[nH]c(=O)n(-c4cncc5ccccc45)c(=O)c3s2)c(=O)[nH]1 [Example 20] | 8620 | – | > 50000 | –
O=c1[nH]c2cc(-c3ccsc3Cl)sc2c(=O)n1-c1cncc2ccccc12 [Example 21] | 32.5 | – | 204 | –
O=c1[nH]c2cc(-c3cccnc3Cl)sc2c(=O)n1-c1cncc2ccccc12 [Example 22] | 37.1 | – | 120 | –

SMILES | IC50 [1, 2] [nM] | EC50 (SARS-CoV-2-NLuc; [3]) [nM] | EC50 (SARS-CoV-2-NLuc; [4]) [nM] | IC50 [1, 5] [nM]
Cc1ncccc1-c1cc2[nH]c(=O)n(-c3cncc4ccccc34)c(=O)c2s1 [Example 23] | 258 | – | 800 | –
O=c1[nH]c2cc(-c3ccccc3C(F)(F)F)ccc2c(=O)n1-c1cncc2ccccc12 [Example 24, 3-(isoquinolin-4-yl)-7-(2-(trifluoromethyl)phenyl)quinazoline-2,4(1H,3H)-dione] | 2730 | 2500 | – | –
O=c1[nH]c2cc(-c3ccccc3)ccc2c(=O)n1-c1cncc2ccccc12 [Example 25] | 1410 | – | 5040 | –
O=c1[nH]c2cc(-c3cccc4ccccc34)ccc2c(=O)n1-c1cncc2ccccc12 [Example 26] | 40100 | – | 47900 | –
Cc1cccc(C)c1-c1ccc2c(=O)n(-c3cncc4ccccc34)c(=O)[nH]c2c1 [Example 27] | 770 | – | 751 | –
C#Cc1ccccc1-c1ccc2c(=O)n(-c3cncc4ccccc34)c(=O)[nH]c2c1 [Example 28] | 340 | – | 536 | –
O=c1[nH]c2cc(-c3ccccc3)cnc2c(=O)n1-c1cncc2ccccc12 [Example 29] | 476 | 4510 | – | –
O=c1[nH]c2cc(-c3ccccc3Cl)cnc2c(=O)n1-c1cncc2ccccc12 [Example 30] | 17.6 | – | 380 | –
O=c1[nH]c2nc(-c3ccccc3)ccc2c(=O)n1-c1cncc2ccccc12 [Example 31] | 14800 | > 50000 | – | –
O=c1[nH]c2nc(-c3ccccc3Cl)ccc2c(=O)n1-c1cncc2ccccc12 [Example 32] | 2280 | 7060 | – | –
N#Cc1cccc(-c2ccc3c(=O)n(-c4cncc5ccccc45)c(=O)[nH]c3c2)c1 [Example 34] | 1520 | – | 6530 | –
N#Cc1ccc(-c2ccc3c(=O)n(-c4cncc5ccccc45)c(=O)[nH]c3c2)cc1 [Example 35] | > 100000 | – | > 50000 | –
Cc1ccccc1-c1ccc2c(=O)n(-c3cncc4ccccc34)c(=O)[nH]c2c1 [Example 36] | 388 | – | 619 | –
O=c1[nH]c2cc(-c3ccccc3Cl)c(F)cc2c(=O)n1-c1cncc2ccccc12 [Example 37] | 248 | – | 170 | –
O=c1[nH]c2cc(-c3ccccc3)c(F)cc2c(=O)n1-c1cncc2ccccc12 [Example 38] | > 100000 | 4910 | – | –
Cc1nnc(-c2cccc(-c3ccc4c(=O)n(-c5cncc6ccccc56)c(=O)[nH]c4c3)c2)o1 [Example 39] | 7750 | 23400 | – | –
O=c1[nH]c2cc(-c3cccc4cccnc34)ccc2c(=O)n1-c1cncc2ccccc12 [Example 40] | 1310 | 4910 | – | –
Cn1ccc2cccc(-c3ccc4c(=O)n(-c5cncc6ccccc56)c(=O)[nH]c4c3)c21 [Example 41] | 1480 | 3840 | – | –
O=c1[nH]c2cc(-c3cncc4ccccc34)ccc2c(=O)n1-c1cncc2ccccc12 [Example 42] | 3220 | 4950 | – | –
O=c1[nH]c2cc(-c3cccnc3)ccc2c(=O)n1-c1cncc2ccccc12 [Example 43] | 3120 | – | > 50000 | –
Cc1noc(C)c1-c1ccc2c(=O)n(-c3cncc4ccccc34)c(=O)[nH]c2c1 [Example 44] | – | 3000 | – | 1370

SMILES | IC50 [1, 2] [nM] | EC50 (SARS-CoV-2-NLuc; [3]) [nM] | EC50 (SARS-CoV-2-NLuc; [4]) [nM] | IC50 [1, 5] [nM]
O=c1[nH]c2cc(-c3ccccc3C3CC3)ccc2c(=O)n1-c1cncc2ccccc12 [Example 45] | – | 1220 | – | 1710
Cc1ccccc1-c1cnc2c(=O)n(-c3cncc4ccccc34)c(=O)[nH]c2c1 [Example 46] | 216 | 989 | – | –
COc1cccc(Cl)c1-c1cnc2c(=O)n(-c3cncc4ccccc34)c(=O)[nH]c2c1 [Example 48] | 95.7 | 277 | – | –
O=c1[nH]c2cc(-c3ccc4sccc4c3)ccc2c(=O)n1-c1cncc2ccccc12 [Example 49] | > 100000 | – | 12800 | –
O=c1[nH]c2cc(-c3csc4ccccc34)ccc2c(=O)n1-c1cncc2ccccc12 [Example 50] | 7920 | – | 9060 | –
O=c1[nH]c2cc(-c3ccc4ccccc4c3)ccc2c(=O)n1-c1cncc2ccccc12 [Example 51] | > 100000 | – | 6800 | –
CC(C)c1ccccc1-c1ccc2c(=O)n(-c3cncc4ccccc34)c(=O)[nH]c2c1 [Example 52] | 12800 | – | 3720 | –
O=c1[nH]c2cc(-c3cc(Cl)cc(Cl)c3)ccc2c(=O)n1-c1cncc2ccccc12 [Example 53] | 33200 | – | 4330 | –
COCc1ccccc1-c1ccc2c(=O)n(-c3cncc4ccccc34)c(=O)[nH]c2c1 [Example 54] | 741 | – | 1630 | –
O=c1[nH]c2cc(-c3ccccc3OCc3ccccc3Cl)ccc2c(=O)n1-c1cncc2ccccc12 [Example 55] | 12800 | – | 1830 | –
O=c1[nH]c2cc(-c3cccc(Cl)c3)ccc2c(=O)n1-c1cncc2ccccc12 [Example 56] | 2750 | – | 3940 | –
O=c1[nH]c2cc(-c3ccccc3OCc3ccccc3)ccc2c(=O)n1-c1cncc2ccccc12 [Example 57] | 5450 | – | 1520 | –
COc1cccc(Cl)c1-c1ccc2c(=O)n(-c3cncc4ccccc34)c(=O)[nH]c2c1 [Example 58] | 158 | – | 164 | –
O=c1[nH]c2cc(-c3cccc(Cl)c3Cl)ccc2c(=O)n1-c1cncc2ccccc12 [Example 59] | > 100000 | – | 6010 | –
O=c1[nH]c2cc(-c3cc(Cl)ccc3Cl)ccc2c(=O)n1-c1cncc2ccccc12 [Example 60] | 192 | – | 227 | –
COc1cccc(F)c1-c1ccc2c(=O)n(-c3cncc4ccccc34)c(=O)[nH]c2c1 [Example 61] | 914 | – | 648 | –
N#Cc1ncccc1-c1ccc2c(=O)n(-c3cncc4ccccc34)c(=O)[nH]c2c1 [Example 62] | 904 | – | 3150 | –
Cc1ncccc1-c1ccc2c(=O)n(-c3cncc4ccccc34)c(=O)[nH]c2c1 [Example 63] | 5850 | – | 8440 | –
Cc1c(-c2ccccc2Cl)sc2c1c(=O)n(-c1cncc3ccccc13)c(=O)n2CC1CCCC1 [Example 64] | 28400 | 3140 | – | –
N#Cc1ccccc1-c1ccc2c(=O)n(-c3cncc4ccccc34)c(=O)[nH]c2c1 [Example 65, 2-(3-(isoquinolin-4-yl)-2,4-dioxo-1,2,3,4-tetrahydroquinazolin-7-yl)benzonitrile] | 108 | – | 286 | –
